Test results as given in PubChem BioAssay AID250 (DTP/NCI, 2004).
Where “and” joins values, the source holds several entries; their conditions need not be identical. Equal values may be shown once. Toxic doses and inconclusive results are not listed.

System: BDF1 mice, L1210 leukemia sc, survival T/C
Assay: NCI In Vivo Anticancer Drug Screen. Data for tumor model L1210 Leukemia (subcutaneous) in B6D2F1 (BDF1) mice
Conditions: higher = longer survival
Description: The antitumor activity of compounds was measured in mice bearing transplantable tumors. Survival or tumor size were measured and the results are expressed as the measurement made in the treated group (T) divided by the measurement made in the vehicle treated control group (C). The tumor model used in this assay is L1210 Leukemia (subcutaneous) in B6D2F1 (BDF1) mice

[1] = endpoint: median survival time, dose: 216.0 mg/kg/injection, schedule: Q01DX Z (sc), vehicle: water
[2] = endpoint: median survival time, dose: 360.0 mg/kg/injection, schedule: Q01DX Z (sc), vehicle: water
[3] = endpoint: median survival time, dose: 600.0 mg/kg/injection, schedule: Q01DX Z (sc), vehicle: water
[4] = endpoint: median survival time, dose: 300.0 mg/kg/injection, schedule: Q01DX Z (sc), vehicle: saline

## COc1ccc(/C=N/NC(N)=S)cc1
endpoint: median survival time, dose: 39.0 mg/kg/injection, schedule: Q01DX Z (sc), vehicle: methylcellulose (MC)
  T/C: 95 % of control
endpoint: median survival time, dose: 39.0 mg/kg/injection, schedule: Q01DX Z (sc), vehicle: water
  T/C: 100 % of control
endpoint: median survival time, dose: 65.0 mg/kg/injection, schedule: Q01DX Z (sc), vehicle: methylcellulose (MC)
  T/C: 100 % of control
endpoint: median survival time, dose: 65.0 mg/kg/injection, schedule: Q01DX Z (sc), vehicle: water
  T/C: 100 % of control
endpoint: median survival time, dose: 108.0 mg/kg/injection, schedule: Q01DX Z (sc), vehicle: methylcellulose (MC)
  T/C: 100 % of control
endpoint: median survival time, dose: 108.0 mg/kg/injection, schedule: Q01DX Z (sc), vehicle: water
  T/C: 100 % of control
endpoint: median survival time, dose: 180.0 mg/kg/injection, schedule: Q01DX Z (sc), vehicle: methylcellulose (MC)
  T/C: 95 % of control
endpoint: median survival time, dose: 180.0 mg/kg/injection, schedule: Q01DX Z (sc), vehicle: water
  T/C: 100 % of control
[1]
  T/C: 100 % of control
endpoint: median survival time, dose: 300.0 mg/kg/injection, schedule: Q01DX Z (sc), vehicle: methylcellulose (MC)
  T/C: 100 % of control
endpoint: median survival time, dose: 300.0 mg/kg/injection, schedule: Q01DX Z (sc), vehicle: water
  T/C: 100 % of control
[2]
  T/C: 111 % of control
endpoint: median survival time, dose: 500.0 mg/kg/injection, schedule: Q01DX Z (sc), vehicle: methylcellulose (MC)
  T/C: 100 % of control
endpoint: median survival time, dose: 500.0 mg/kg/injection, schedule: Q01DX Z (sc), vehicle: water
  T/C: 100 % of control
[3]
  T/C: 105 % of control
endpoint: median survival time, dose: 1000.0 mg/kg/injection, schedule: Q01DX Z (sc), vehicle: water
  T/C: 111 % of control

## CN(C)/N=N/c1nc[nH]c1C(N)=O
endpoint: mean survival time, dose: 39.0 mg/kg/injection, schedule: Q01DX009 (sc), vehicle: steriod suspending solution
  T/C: 117 % of control
endpoint: mean survival time, dose: 65.0 mg/kg/injection, schedule: Q01DX009 (sc), vehicle: steriod suspending solution
  T/C: 115 % of control
endpoint: mean survival time, dose: 300.0 mg/kg/injection, schedule: Q01DX009 (sc), vehicle: steriod suspending solution
  T/C: 158 % of control
endpoint: median survival time, dose: 39.0 mg/kg/injection, schedule: Q01DX009 (sc), vehicle: steriod suspending solution
  T/C: 110 % of control and 116 % of control
endpoint: median survival time, dose: 39.0 mg/kg/injection, schedule: Q01DX013 (sc), vehicle: steriod suspending solution
  T/C: 110 % of control and 111 % of control
endpoint: median survival time, dose: 39.0 mg/kg/injection, schedule: Q01DX Z (sc), vehicle: steriod suspending solution
  T/C: 110 % of control and 116 % of control
endpoint: median survival time, dose: 65.0 mg/kg/injection, schedule: Q01DX009 (sc), vehicle: other
  T/C: 111 % of control
endpoint: median survival time, dose: 65.0 mg/kg/injection, schedule: Q01DX009 (sc), vehicle: steriod suspending solution
  T/C: 110 % of control and 118 % of control and 121 % of control
endpoint: median survival time, dose: 65.0 mg/kg/injection, schedule: Q01DX013 (sc), vehicle: other
  T/C: 113 % of control
endpoint: median survival time, dose: 65.0 mg/kg/injection, schedule: Q01DX013 (sc), vehicle: steriod suspending solution
  T/C: 111 % of control and 113 % of control and 115 % of control
endpoint: median survival time, dose: 65.0 mg/kg/injection, schedule: Q01DX017 (oral), vehicle: steriod suspending solution
  T/C: 124 % of control
endpoint: median survival time, dose: 65.0 mg/kg/injection, schedule: Q01DX Z (sc), vehicle: steriod suspending solution
  T/C: 121 % of control and 122 % of control
endpoint: median survival time, dose: 65.0 mg/kg/injection, schedule: Q ##X015 (oral), vehicle: steriod suspending solution
  T/C: 113 % of control
endpoint: median survival time, dose: 65.0 mg/kg/injection, schedule: Q## X015 (oral), vehicle: steriod suspending solution
  T/C: 116 % of control
endpoint: median survival time, dose: 108.0 mg/kg/injection, schedule: Q01DX009 (sc), vehicle: other
  T/C: 108 % of control
endpoint: median survival time, dose: 108.0 mg/kg/injection, schedule: Q01DX013 (sc), vehicle: steriod suspending solution
  T/C: 115 % of control and 117 % of control and 122 % of control
endpoint: median survival time, dose: 108.0 mg/kg/injection, schedule: Q01DX Z (sc), vehicle: steriod suspending solution
  T/C: 115 % of control
endpoint: median survival time, dose: 108.0 mg/kg/injection, schedule: Q ##X015 (oral), vehicle: steriod suspending solution
  T/C: 117 % of control
endpoint: median survival time, dose: 108.0 mg/kg/injection, schedule: Q## X015 (oral), vehicle: steriod suspending solution
  T/C: 116 % of control
endpoint: median survival time, dose: 180.0 mg/kg/injection, schedule: Q01DX009 (sc), vehicle: other
  T/C: 115 % of control
endpoint: median survival time, dose: 300.0 mg/kg/injection, schedule: Q01DX Z (sc), vehicle: steriod suspending solution
  T/C: 166 % of control
endpoint: median survival time, dose: 500.0 mg/kg/injection, schedule: Q01DX013 (sc), vehicle: other
  T/C: 166 % of control
endpoint: median survival time, dose: 500.0 mg/kg/injection, schedule: Q01DX013 (sc), vehicle: steriod suspending solution
  T/C: 166 % of control
endpoint: median survival time, dose: 500.0 mg/kg/injection, schedule: Q01DX017 (oral), vehicle: steriod suspending solution
  T/C: 150 % of control
endpoint: median survival time, dose: 500.0 mg/kg/injection, schedule: Q## X015 (oral), vehicle: steriod suspending solution
  T/C: 150 % of control
endpoint: median survival time, dose: 833.0 mg/kg/injection, schedule: Q ##X015 (oral), vehicle: steriod suspending solution
  T/C: 158 % of control
endpoint: median survival time, dose: 833.0 mg/kg/injection, schedule: Q## X015 (oral), vehicle: steriod suspending solution
  T/C: 166 % of control

## CN(C)c1ccc(Nc2c3ccccc3nc3ccccc23)cc1
endpoint: median survival time, dose: 93.0 mg/kg/injection, schedule: Q01DX Z (sc), vehicle: saline
  T/C: 104 % of control
endpoint: median survival time, dose: 155.0 mg/kg/injection, schedule: Q01DX Z (sc), vehicle: saline
  T/C: 113 % of control
endpoint: median survival time, dose: 259.0 mg/kg/injection, schedule: Q01DX Z (sc), vehicle: saline
  T/C: 109 % of control
endpoint: median survival time, dose: 432.0 mg/kg/injection, schedule: Q01DX Z (sc), vehicle: saline
  T/C: 113 % of control

## O=C(O)c1[nH]c(=O)[nH]c(=O)c1F
endpoint: median survival time, dose: 2.5 mg/kg/injection, schedule: Q01DX Z (sc), vehicle: methylcellulose (MC)
  T/C: 105 % of control
endpoint: median survival time, dose: 8.0 mg/kg/injection, schedule: Q01DX Z (sc), vehicle: saline
  T/C: 166 % of control
endpoint: median survival time, dose: 10.0 mg/kg/injection, schedule: Q01DX Z (sc), vehicle: methylcellulose (MC)
  T/C: 158 % of control
endpoint: median survival time, dose: 16.0 mg/kg/injection, schedule: Q01DX Z (sc), vehicle: saline
  T/C: 150 % of control
endpoint: median survival time, dose: 20.0 mg/kg/injection, schedule: Q01DX Z (sc), vehicle: methylcellulose (MC)
  T/C: 164 % of control
endpoint: median survival time, dose: 32.0 mg/kg/injection, schedule: Q01DX Z (sc), vehicle: saline
  T/C: 166 % of control
endpoint: median survival time, dose: 40.0 mg/kg/injection, schedule: Q01DX Z (sc), vehicle: methylcellulose (MC)
  T/C: 176 % of control
endpoint: median survival time, dose: 64.0 mg/kg/injection, schedule: Q01DX Z (sc), vehicle: saline
  T/C: 155 % of control
endpoint: median survival time, dose: 128.0 mg/kg/injection, schedule: Q01DX Z (sc), vehicle: saline
  T/C: 155 % of control
endpoint: median survival time, dose: 256.0 mg/kg/injection, schedule: Q01DX Z (sc), vehicle: saline
  T/C: 150 % of control

## CC(=O)NC(CS)C(=O)O (stereo not drawn)
endpoint: median survival time, dose: 600.0 mg/kg/injection, schedule: Q01DX001 (ip), vehicle: saline
  T/C: 94 % of control and 97 % of control
endpoint: median survival time, dose: 600.0 mg/kg/injection, schedule: Q01DX015 (ip), vehicle: saline
  T/C: 94 % of control and 97 % of control
endpoint: median survival time, dose: 600.0 mg/kg/injection, schedule: Q07DX003 (ip), vehicle: saline
  T/C: 94 % of control and 97 % of control
endpoint: median survival time, dose: 1000.0 mg/kg/injection, schedule: Q01DX001 (ip), vehicle: saline
  T/C: 94 % of control and 96 % of control
endpoint: median survival time, dose: 1000.0 mg/kg/injection, schedule: Q01DX015 (ip), vehicle: saline
  T/C: 103 % of control and 105 % of control
endpoint: median survival time, dose: 1000.0 mg/kg/injection, schedule: Q07DX003 (ip), vehicle: saline
  T/C: 99 % of control and 100 % of control

## CCCCCCCCCCCCCCCCNC(=S)N/N=C/c1ccccc1OC
endpoint: median survival time, dose: 78.0 mg/kg/injection, schedule: Q01DX Z (sc), vehicle: water
  T/C: 100 % of control
endpoint: median survival time, dose: 130.0 mg/kg/injection, schedule: Q01DX Z (sc), vehicle: water
  T/C: 105 % of control
[1]
  T/C: 111 % of control
[2]
  T/C: 105 % of control
[3]
  T/C: 100 % of control

## COc1cccc2c1C(=O)c1c(O)c3c(c(O)c1C2=O)CC(O)(C(C)=O)CC3OC1CC(N)C(O)C(C)O1 (stereo not drawn)
endpoint: median survival time, dose: 11.7 mg/kg/injection, schedule: Q04DX003 (ip), vehicle: saline
  T/C: 90 % of control
endpoint: median survival time, dose: 23.4 mg/kg/injection, schedule: Q04DX003 (ip), vehicle: saline
  T/C: 94 % of control
endpoint: median survival time, dose: 46.8 mg/kg/injection, schedule: Q04DX003 (ip), vehicle: saline
  T/C: 91 % of control
endpoint: median survival time, dose: 93.6 mg/kg/injection, schedule: Q04DX003 (ip), vehicle: saline
  T/C: 91 % of control
endpoint: median survival time, dose: 187.2 mg/kg/injection, schedule: Q04DX003 (ip), vehicle: saline
  T/C: 90 % of control

## Nc1cc(=O)[nH][nH]1
[4]
  T/C: 100 % of control
endpoint: median survival time, dose: 500.0 mg/kg/injection, schedule: Q01DX Z (sc), vehicle: saline
  T/C: 105 % of control
endpoint: median survival time, dose: 833.0 mg/kg/injection, schedule: Q01DX Z (sc), vehicle: saline
  T/C: 90 % of control
endpoint: median survival time, dose: 1388.0 mg/kg/injection, schedule: Q01DX Z (sc), vehicle: saline
  T/C: 90 % of control

## O=C(Nc1ccc(NC(=O)Nc2cccc(C3=NCCN3)c2)cc1)Nc1cccc(C2=NCCN2)c1
endpoint: median survival time, dose: 23.0 mg/kg/injection, schedule: Q01DX Z (sc), vehicle: saline
  T/C: 100 % of control
endpoint: median survival time, dose: 39.0 mg/kg/injection, schedule: Q01DX Z (sc), vehicle: saline
  T/C: 110 % of control
endpoint: median survival time, dose: 65.0 mg/kg/injection, schedule: Q01DX Z (sc), vehicle: saline
  T/C: 100 % of control
endpoint: median survival time, dose: 108.0 mg/kg/injection, schedule: Q01DX Z (sc), vehicle: saline
  T/C: 95 % of control
endpoint: median survival time, dose: 180.0 mg/kg/injection, schedule: Q01DX Z (sc), vehicle: saline
  T/C: 100 % of control
[4]
  T/C: 100 % of control
